In patent US11147748B2, “Composition of temporary crown materials” (National Taipei University of Technology, priority 2019, dated 2021):
Entries after “also recorded” stand apart in the source; their conditions may differ. Structures can show the parent of a compound that is named as a salt.

What was measured:
[1] = three-point bending test (flexural strength, toughness) of the temporary crown material; format: physicochemical; details: for toughness (in words): FIG. 5
Protocol: First, the temporary crown material was filled into a stainless steel mold (a length of 25 millimeters (mm), a width of 2 mm and a height of 2 mm). After the temporary crown was completely cured, the crown was immersed in ultrapure water and placed in an oven at 37° C. for 24 hours. […] The flexural strength was calculated by the following formula: […]
wherein F was the force (N) under the maximum load; b was the average width (mm) of the test piece; h was the average thickness (mm) of the test piece; and l was the pitch (mm) between the two lower fulcrums.
In addition, the toughness of the temporary crown is the integral area under the stress-strain curve, in which stress is put on Y-axis and strain is put on X-axis. The unit of the toughness is […]

[2] = system: fibroblasts (L929); test: cytotoxicity test (MTT) with extract of the cured temporary crown material; format: cell-based; details: L929 co-cultured with material extract (0.2 g/ml) for 24 hours and 72 hours; plasticizer in crown material; FIG. 3
Protocol: First, 2 grams (g) of the mixture of the powder reagent and the liquid reagent were taken to be cured and then immersed in 10 ml of MEM culture medium at a temperature of 37° C. for 24 hours. Afterwards, an extract of the mixture was taken, in which the extraction ratio was 0.2 g/ml.
Further, fibroblasts (L929) were seeded in the 96-well plates and incubated for 1 day.
Afterwards, the cell culture media were removed, and then a material extract containing 10% fetal bovine serum (FBS) after filtration and a culture medium without the material extract as the control were added, respectively, and then incubated for 24-72 hours. Subsequently, the culture media were removed again, and then phosphate buffered saline (PBS) washes were performed, followed by PBS removal. The serum-free culture medium was formulated as a reaction reagent of MTT ((3-(4,5-dimethylthiazol-2-yl)-2,5-diphenyltetrazolium bromide)), and the ratio of the culture medium to the MTT solution was 1 mg/ml. Each well plate was added with 50 μl of MTT reagent and then placed in the incubator. After 2 hours, the MTT reagent was removed, and 100 μl of antifreezing agent (DMSO) was added. The 96-well plate was shaken for 30 minutes using a rotary shaker. After the reaction was completed, the absorbance at a wavelength of 570 nm was measured by an ELISA reader. […]

[3] = surface hardness test of temporary crowns (micro hardness tester); format: physicochemical; details: plasticizer added to temporary crown; load 4.903 N for 10 seconds; FIG. 6
Protocol: First, the temporary crown material was filled into a stainless steel mold (a diameter of 15 mm and a thickness of 1 mm). After the temporary crown was completely cured, the sample was immersed in ultrapure water and placed in an oven at 37° C. After 24 hours, the sample to be tested was taken out and placed in a micro hardness tester (HMV-2 series), and the load applied to the sample by the diamond indenter was 4.903 N for 10 seconds. Finally, the average length of the diagonal indentation on the surface of the sample was measured to calculate the surface hardness of the temporary crown. The calculation formula was: […]
wherein d is the length of the indentation, F is the load, and g is the gravity constant.

[4] = plasticizer added to temporary crown
[5] = temporary crown with 2% plasticizer
[6] = temporary crown with 5% plasticizer
[7] = temporary crown with 10% plasticizer
[8] = temporary crown with 15% plasticizer

Row | SMILES | Elongation at break [1, 5] | Flexural modulus [1, 5] | Maximum stress [1, 5] | Strain [1, 5] | Toughness [1, 5] | Elongation at break [1, 6] | Flexural modulus [1, 6] | Maximum stress [1, 6] | Strain [1, 6] | Toughness [1, 6] | Elongation at break [1, 7] | Flexural modulus [1, 7] | Maximum stress [1, 7] | Strain [1, 7] | Toughness [1, 7] | Elongation at break [1, 8] | Flexural modulus [1, 8] | Maximum stress [1, 8] | Strain [1, 8] | Toughness [1, 8] | also measured
1 | CCCCOC(=O)CC(CC(=O)OCCCC)(OC(C)=O)C(=O)OCCCC [ATBC, acetyl tributyl citrate] | 7.94% | 2463.34 MPa | 85.24 MPa | 7.72% | 59.89 MPa | 8.24% | 2362.61 MPa | 81.98 MPa | 7.82% | 57.21 MPa | 6.50% | 2138.92 MPa | 70.29 MPa | 6.48% | 28.07 MPa | 5.70% | 1897.78 MPa | 55.59 MPa | 5.71% | 17.39 MPa | flexural strength (in words) ([1]; plasticizer added to temporary crown, FIG. 4): can increase the flexural strength; toughness (in words) [1, 4]: can increase the toughness; cytotoxicity / cell survival rate [2]: less than that of adding plasticizers DBP and TEC; also recorded: less toxicity to cells
2 | CCCCOC(=O)c1ccccc1C(=O)OCCCC [DBP, dibutyl phthalate, reference compound] | 10.86% | 1215.08 MPa | 66.56 MPa | 10.75% | 28.74 MPa | 11.43% | 1199.73 MPa | 62.75 MPa | 10.75% | 31.14 MPa | 9.56% | 1083.70 MPa | 54.11 MPa | 9.75% | 18.94 MPa | 9.68% | 997.11 MPa | 46.25 MPa | 9.50% | 17.35 MPa | surface hardness (in words) [3]: contributes to the increase of surface hardness
3 | CCOC(=O)CC(O)(CC(=O)OCC)C(=O)OCC [TEC, triethyl citrate] | 10.43% | 2173.29 MPa | 80.70 MPa | 8.94% | 77.26 MPa | 13.14% | 2308.16 MPa | 83.40 MPa | 9.20% | 115.80 MPa | 7.10% | 2029.32 MPa | 69.93 MPa | 7.09% | 30.88 MPa | 5.34% | 1790.09 MPa | 46.31 MPa | 5.36% | 11.98 MPa | toughness (in words) [1, 4]: can increase the toughness; cytotoxicity / cell survival rate [2]: not significantly improved
